# Starred links: 1 amine or outer side, 2 acyl side, 3 side chain; linkers in the order of their positions; H or OH if unused. Non-standard residues stand in square brackets, D forms with d. Residues, ends and D or L forms follow the SMILES beside them. Cha = N[C@@H](CC1CCCCC1)C(=O)O; Suc = O=C(CCC(=O)[*:2])[*:1]
# Biological target: Bovine thrombin (Bos taurus, UniProt P00735)
# Assay: thrombin induced fibrin clot inhibition assay
# Assay type: biochemical
# Experimental: Samples were tested in a thrombin induced fibrin clot inhibition assay. All the solutions of the assay were made with an assay buffer containing 0.12M sodium chloride, 0.01M sodium phosphate, 0.01% sodium azide and 0.1% bovine serum albumin, pH 7.4. […] This solution of thrombin (50 ul; 0.2 pmol) was added to the wells of a microtiter plate containing 50 ul of a solution of the synthetic peptide being tested. […] The turbidity of the solution was monitored by the autoreader at 5 min intervals. […] This is equivalent to a twofold increase in fibrin clot formation time. For the assays using human thrombin,, it and bovine thrombin were titrated to concentrations which gave the fibrin clot at the same rate over a 30 min period.
row,Structure (SMILES),IC50 [µM]
1,"CC[C@H](C)[C@H](NC(=O)[C@@H]1CCCN1C(=O)[C@H](CCC(=O)O)NC(=O)[C@H](Cc1ccc(O)cc1)NC(=O)CCC(=O)O)C(=O)N1CCC[C@H]1C(=O)N[C@@H](CCC(=O)O)C(=O)N[C@@H](CCC(=O)O)C(=O)N[C@@H](CC1CCCCC1)C(=O)N[C@@H](CCC(N)=O)C(N)=O [compound 5, Suc--Tyr--Glu--Pro--Ile-- Pro--Glu--Glu--Cha--Gln--NH2] (Suc-YEPIPEE[Cha]Q-NH2)",< 25
2,"CC[C@H](C)[C@H](NC(=O)[C@@H]1CCCN1C(=O)[C@H](CCC(=O)O)NC(=O)[C@H](Cc1ccc(O)cc1)NC(=O)CCC(=O)O)C(=O)N1CCC[C@H]1C(=O)N[C@@H](CCC(=O)O)C(=O)N[C@@H](CCC(=O)O)C(=O)N[C@@H](CC1CCCCC1)C(=O)N[C@H](CCC(=O)O)C(=O)O [compound 15, Suc--Tyr--Glu--Pro--Ile--Pro--Glu--Glu--Cha--D-Glu--OH]",< 25
3,"CC[C@H](C)[C@H](NC(=O)[C@@H]1CCCN1C(=O)[C@H](CCC(=O)O)NC(=O)[C@H](Cc1ccc(O)cc1)NC(=O)CCC(=O)O)C(=O)N1CCC[C@H]1C(=O)N[C@@H](CCC(=O)O)C(=O)N[C@@H](CCC(=O)O)C(=O)N[C@@H](C)C(=O)N[C@@H](CC1CCCCC1)C(=O)O [compound 18, Suc--Tyr--Glu--Pro--Ile--Pro--Glu--Glu--Ala--Cha--OH]",< 25

# Reference: patent US5192747A, “Anticoagulant peptides” (Merrell Dow Pharmaceuticals Inc., priority 1991, dated 1993)
